Measurements reported in US11760775B2, “Steroids and protein-conjugates thereof” (Regeneron Pharmaceuticals, Inc., priority 2016, dated 2023).
≈ marks a conversion by molar mass, not a printed value. Where “and” joins values, the source holds several entries; their conditions need not be identical. Equal entries are not always repeated. Where two headings read alike, the source gives them in different places.

Assays:
[1] = target: human liver cathepsin B (Homo sapiens (Human), UniProt P07858); assay: Linker-payload cleavage in Cathepsin B assay; type: biochemical; conditions: for Conversion rate (%): Mean
Protocol: The linker-payloads were tested in a Cathepsin B assay. After 4 hr incubation in Cathepsin B (CapB) with and without CapB inhibitor ([…]), both linker-payloads and free payload were evaluated using LC-MS/MS.
The CapB assay procedure follows: Linker-payload stock solution (10 mM in DMSO) was spiked into incubation buffer (100 mM NaOAc, 10 mM dithiothreitol, pH5) to obtain a 50 μM substrate solution. 4 μL of 0.47 μg/μL human liver cathepsin B (Athens Research & Technology, Athens, GA) in 50 mM NaOAc, 1 mM EDTA, pH 5 was added into 196 μL of 50 μM substrate solution. The reaction mixture was incubated at 37° C. for 4 hr. Then 5 μL of acetic acid and 150 μL of acetonitrile (containing osalmid as internal standard) were added to 50/Th of reaction mixture aliquots. After vortexing, the quenched samples were frozen in a −70° C. deep freezer, followed by thawing and centrifugation at 14,000 rpm.
The CapB assay experiment included the following procedure. • 1. Preheat assay buffer: 0.1 M NaOAc/0.01 M DTT (pH 5.0) • 2. Spiking solutions for test compounds: 25 μM Spiking solutions for test compounds: Add […], of 5 mM stock solution into 398 μL of 0.1 M NaOAc/0.01 M DTT buffer (pH 5.0). • 3. Prepare 0.47m/μL Cathepsin B in 50 mM NaOAc/1 mM EDTA (pH 5.0). Put on ice. • 4. Without CA074 samples: Add […], of 0.47m/μL Cathepsin B into 196 μL of 25 μM Spiking solutions (from step 2), incubate the tubes at 37° C. • 5. With CA074 samples: Add 4 μL of 0.47m/μL Cathepsin B with 4 μL of 10 mM Inhibitor (CA074) into 196 μL of 25 μM Spiking solutions (from step 2), incubate the tubes at 37° C. • 6. After 4 hours, Aliquots of 5 μL (with CA074 and without CA074) were taken for enzyme activity test (step 15-17). Meanwhile, Aliquots of 50 μL were taken at the time point (4 h), adding 5 μL of acetic acid, and then add 150 μL of ACN (IS) to stop the reaction. • 7. After quenching, shake the plate and centrifuge them at 14000 rpm. • 8. Transfer 50 μL of the supernatant from each well into a 96-well sample plate containing 50 μL of ultra pure water (Millipore, ZMQS50F01) for LC/MS analysis.
The CapB assay experiment included the reference compounds and the following procedure. • 9. Preheat assay buffer: 100 mM Na/K phosphate, pH6.0, with 1.33 mM EDTA and 2 mM DTT. • 10. Prepare 0.024m/μL Cathepsin B: Add […] of 0.47 μg/μL Cathepsin B stock into 19 μL of assay buffer (from step 11). • 11. Add 2 μL of 0.024m/μL Cathepsin B (from step 12) to a opaque 96-well plate. • 12. Add 96 μL of assay buffer to each sample. • 13. Add 2 μL of the 10 mM substrate Z—RR-MNA(200 μM final concentration). • For negative control (with inhibitor), add 2 μL of 10 mM Inhibitor (CA074). • 14. Immediately read the samples in a kinetic mode at excitation of 340 nm/emission of 425 nm (Read the plate every 30 Second for 3 min).
Stability of Cathepsin B in incubation samples: • 15. Take Take 5 μL of incubation samples into 93 μL of assay buffer (from step 11), and then add 2 μL of 10 mM substrate (Z—RR-MNA). • 16. Incubate the samples at 37° C. for 2 min. • 17. Read the samples at excitation of 340 nm/emission of 425 nm.

[2] = Solubility in water and DMSO/water; conditions: 10% DMSO in water, aqueous with cosolvent or surfactant or cyclodextrin
[3] = target: Glucocorticoid Receptor (GR) (Homo sapiens (Human), UniProt P04150); assay: LanthaScreen TR-FRET GR Competitive Binding Assay (cell free)
Sequence of Glucocorticoid Receptor (GR) (P04150 524-758): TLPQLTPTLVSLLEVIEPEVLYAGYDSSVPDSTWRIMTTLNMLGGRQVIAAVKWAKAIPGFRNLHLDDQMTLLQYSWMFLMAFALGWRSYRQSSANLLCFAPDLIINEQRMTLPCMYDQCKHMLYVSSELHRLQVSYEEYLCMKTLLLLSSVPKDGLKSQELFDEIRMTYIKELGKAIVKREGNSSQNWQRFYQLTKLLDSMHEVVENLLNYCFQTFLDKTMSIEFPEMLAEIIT

[4] = system: GR activation in 293/PRLR/GRE-Luc cells (HEK293/9xUAS-Luc2P/pBind-GR/PRLR-HA high cells); assay: GR co-activator luciferase reporter cell based assay in 293/PRLR/GRE-Luc cells; design: species or system human; conditions: for EC50: HEK293, read-out: HEK293/9xUAS-Luc2P/pBind-GR/PRLR-HA high cells EC50
Method in brief: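 EC50 was derived from a 10-point, four-parameter logistic fit of One-Glo luminescence. The reporter is driven by Gal4UAS through GR ligand-binding domain fused to Gal4 DBD in PRLR-expressing 293 cells, after ADC internalization or free steroid exposure. Activation below 10% of the free-payload maximum counts as minimal.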

[5] = Pharmacokinetics of 4b and 6-I in mice (blood concentration-time); type: in vivo, C57BL/6j mice; design: Tmax: unit not given here; conditions: IP, 1 mg/Kg in male C57BL/6 mice, Mean
[6] = system: LPS-induced cytokine release (TNF-α); assay: Mouse model of LPS induced cytokine release (TNF-α in plasma); type: in vivo, C57BL/6j mice; conditions: for TNF-a: plasma 2 hr post LPS challenge, individual mice
[7] = with CA074 (Cathepsin B inhibitor), 4 hr incubation
[8] = without CA074, 4 hr incubation with Cathepsin B
[9] = Homo sapiens, 72 hours of incubation

## CCCC1O[C@@H]2C[C@H]3[C@@H]4C[C@H](F)C5=CC(=O)C=C[C@]5(C)[C@@]4(F)[C@@H](O)C[C@]3(C)[C@]2(C(=O)COc2ccc(NC(=O)OCc3ccc(NC(=O)[C@H](CCCNC(N)=O)NC(=O)[C@@H](NC(=O)[C@@H](N)CCCCNC(=O)COC4C#CCCCCC4)C(C)C)cc3)cc2)O1 (stereo partly drawn) [LP103]
[1]; [7]
  Conversion rate (%): <1.00%
[1]; [8]
  Conversion rate (%): 29.0%

## CCCC1O[C@@H]2C[C@H]3[C@@H]4C[C@H](F)C5=CC(=O)C=C[C@]5(C)[C@@]4(F)[C@@H](O)C[C@]3(C)[C@]2(C(=O)COc2ccc(NC(=O)[C@H](C)NC(=O)[C@@H](NC(=O)[C@@H](N)CCCCNC(=O)COC3C#CCCCCC3)C(C)C)cc2)O1 (stereo partly drawn) [LP102]
[1]; [7]
  Conversion rate (%): <1.00%
[1]; [8]
  Conversion rate (%): 22.72%

## CCC[C@@H]1O[C@@H]2C[C@H]3[C@@H]4CCC5=CC(=O)C=C[C@]5(C)[C@H]4[C@@H](O)C[C@]3(C)[C@]2(C(=O)COc2ccc(NC(=O)[C@H](C)NC(=O)[C@@H](NC(=O)[C@@H](CCCCNC(=O)COC3CCCCCc4c3nnn4CC3OC4OC5C(CO)OC(OC6C(CO)OC(OC7C(CO)OC(OC8C(CO)OC(OC9C(CO)OC(OC3C(O)C4O)C(O)C9O)C(O)C8O)C(O)C7O)C(O)C6O)C(O)C5O)NC(=O)CCOCCOCCOCCOCCNC(=O)CCC(=O)N3Cc4ccccc4C#Cc4ccccc43)C(C)C)cc2)O1 (stereo partly drawn) [LP16]
[2]
  solubility: 100 µg/mL (≈ 39.7 µM)

## CCCC1O[C@@H]2C[C@H]3[C@@H]4C[C@H](F)C5=CC(=O)C=C[C@]5(C)[C@@]4(F)[C@@H](O)C[C@]3(C)[C@]2(C(=O)CNC(=O)OCc2ccc(NC(=O)[C@H](CCCNC(N)=O)NC(=O)[C@@H](NC(=O)CCOCCOCCOCCOCCNC(=O)CCC(=O)N3Cc4ccccc4C#Cc4ccccc43)C(C)C)cc2)O1 (stereo partly drawn) [LP112]
[1]; [7]
  Conversion rate (%): <1.00%
[1]; [8]
  Conversion rate (%): 20.8%

## CCCC1O[C@@H]2C[C@H]3[C@@H]4C[C@H](F)C5=CC(=O)C=C[C@]5(C)[C@@]4(F)[C@@H](O)C[C@]3(C)[C@]2(C(=O)COc2ccc(NC(=O)OCc3ccc(NC(=O)[C@H](CCCNC(N)=O)NC(=O)[C@@H](NC(=O)CCOCCOCCOCCOCCNC(=O)CCC(=O)N4Cc5ccccc5C#Cc5ccccc54)C(C)C)cc3)cc2)O1 (stereo partly drawn) [LP116]
[1]; [7]
  Conversion rate (%): <1.00%

## CCCC1O[C@@H]2C[C@H]3[C@@H]4C[C@H](F)C5=CC(=O)C=C[C@]5(C)[C@@]4(F)[C@@H](O)C[C@]3(C)[C@]2(C(=O)CNC(=O)OCc2ccc(NC(=O)[C@H](CCCNC(N)=O)NC(=O)[C@@H](NC(=O)[C@@H](CCCCNC(=O)COC3CCCCCc4c3nnn4CC3OC4OC5C(CO)OC(OC6C(CO)OC(OC7C(CO)OC(OC8C(CO)OC(OC9C(CO)OC(OC3C(O)C4O)C(O)C9O)C(O)C8O)C(O)C7O)C(O)C6O)C(O)C5O)NC(=O)CCOCCOCCOCCOCCNC(=O)CCC(=O)N3Cc4ccccc4C#Cc4ccccc43)C(C)C)cc2)O1 (stereo partly drawn) [LP104]
[1]; 4 hr incubation, LC-MS/MS
  Cleavage by Cathepsin B and payload release: could be cleaved by CapB and released more payload (4b)
[1]; [7]
  Conversion rate (%): <1.00%
[1]; [8]
  Conversion rate (%): 29.0%

## CCCC1O[C@@H]2C[C@H]3[C@@H]4C[C@H](F)C5=CC(=O)C=C[C@]5(C)[C@@]4(F)[C@@H](O)C[C@]3(C)[C@]2(C(=O)CNC(=O)OCc2ccc(NC(=O)[C@H](CCCNC(N)=O)NC(=O)[C@@H](NC(=O)[C@@H](N)CCCCNC(=O)COC3C#CCCCCC3)C(C)C)cc2)O1 (stereo partly drawn) [LP101]
[1]; [7]
  Conversion rate (%): <1.00%
[1]; [8]
  Conversion rate (%): 48.20%

## CCCC1O[C@@H]2C[C@H]3[C@@H]4CCC5=CC(=O)C=C[C@]5(C)[C@H]4[C@@H](O)C[C@]3(C)[C@]2(C(=O)CN)O1 (stereo partly drawn) [11-1 R/S, (1S,2S,4R,8S,9S,11S,12S,13R)-8-(2-Aminoacetyl)-11-hydroxy-9,13-dimethyl-6-propyl-5,7-dioxapentacyclo[10.8.0.0^2,9. 0^4,80.0^13,18]icosa-14,17-dien-16-one]
[3]
  IC50: 10 to 100 nM
[4]; Homo sapiens, HEK293, read-out: Activation (fold activation relative to Budesonide) in HEK293/9xUAS-Luc2P/pBind-GR/PRLR-HA high cells, 72 hours of incubation
  Emax: > 75%
[4]; [9]
  EC50: < 10 nM

## CCCC1O[C@@H]2C[C@H]3[C@@H]4C[C@H](F)C5=CC(=O)C=C[C@]5(C)[C@@]4(F)[C@@H](O)C[C@]3(C)[C@]2(C(=O)CN(C)Cc2ccc(OC)cc2)O1 (stereo partly drawn) [11-20 R/S, (1S,2S,4R,8S,9S,11S,12R,13S,19S)-12,19-Difluoro-11-hydroxy-8-(2-{[(4-methoxyphenyl)methyl](methyl)amino}acetyl)-9,13-dimethyl-6-propyl-5,7-dioxapentacyclo[10.8.0.0^2,90.0^4,80.0^13,18]icosa-14,17-dien-16-one; trifluoroacetic acid]
[3]
  IC50: < 10 nM
[4]; 72 hours of incubation
  Activation (fold activation relative to Budesonide) in HEK293/9xUAS-Luc2P/pBind-GR/PRLR-HA high cells: no activation
[4]; [9]
  EC50: > 100 nM

## CCCC1O[C@@H]2C[C@H]3[C@@H]4C[C@H](F)C5=CC(=O)C=C[C@]5(C)[C@@]4(F)[C@@H](O)C[C@]3(C)[C@]2(C(=O)COc2ccc(N)cc2)O1 (stereo partly drawn) [Compound 6-I, (1S,2S,4R,8S,9S,11S,12R,13S,19S)-8-[2-(4-Aminophenoxy)acetyl]-12,19-difluoro-11-hydroxy-9,13-dimethyl-6-propyl-5,7-dioxapentacyclo[10.8.0.0^2,90.0^4,80.0^13,118]icosa-14,17-dien-16-one]
[4]; Homo sapiens
  EC50: < 10 nM
[4]; fold activation vs Budesonide
  HEK293/9xUAS-Luc2P/pBind-GR/PRLR-HA high cells activation relative to Budesonide: Full
[5]
  Tmax: 0.250
[5]; mouse, in vivo, read-out: AUCINF
  AUC(0-inf): 113 ng·h/mL
[5]; mouse, in vivo, read-out: AUClast
  AUC(0-t): 107 ng·h/mL
[5]; mouse, in vivo, read-out: Cmax
  Cmax: 44.8 ng/mL
[5]; mouse, in vivo, read-out: Terminal t1/2 (converted)
  half-life: 1.91 h
[6]; 5 mpk ip before LPS challenge, plasma at 2 hr time point
  Inhibition of TNF-α production: time dependent inhibition
[6]; 5MPK ip (−2 h) prior to LPS
  TNF-a: 110.6 pg/mL and 30.8 pg/mL and 240.8 pg/mL
[6]; 5MPK ip (−24 h) prior to LPS
  TNF-a: 23.1 pg/mL and 997.3 pg/mL and 55.4 pg/mL
[6]; 5MPK ip (−48 h) prior to LPS
  TNF-a: 1280.1 pg/mL and 1149.4 pg/mL and 750.0 pg/mL
